We go through two compounds from PMC5788574 (The Journal of comparative neurology, 2017).

Where two headings read alike, the source gives them in different places.

Data set [1] can be described thus: Expanded acute toxicity study, intravenous, rats. Format: in vivo, Sprague-Dawley rats.
Data set [2] has as its target hα3β2 nAChR (Homo sapiens, UniProt P17787+P32297). Format: binding.
Data set [3] deals with nAChR α2β4 (Homo sapiens, UniProt P30926+Q15822). The experiment in a line: biochemical. The data set is classed as binding.
nAChR α2β4, sequence (Q15822 27-529): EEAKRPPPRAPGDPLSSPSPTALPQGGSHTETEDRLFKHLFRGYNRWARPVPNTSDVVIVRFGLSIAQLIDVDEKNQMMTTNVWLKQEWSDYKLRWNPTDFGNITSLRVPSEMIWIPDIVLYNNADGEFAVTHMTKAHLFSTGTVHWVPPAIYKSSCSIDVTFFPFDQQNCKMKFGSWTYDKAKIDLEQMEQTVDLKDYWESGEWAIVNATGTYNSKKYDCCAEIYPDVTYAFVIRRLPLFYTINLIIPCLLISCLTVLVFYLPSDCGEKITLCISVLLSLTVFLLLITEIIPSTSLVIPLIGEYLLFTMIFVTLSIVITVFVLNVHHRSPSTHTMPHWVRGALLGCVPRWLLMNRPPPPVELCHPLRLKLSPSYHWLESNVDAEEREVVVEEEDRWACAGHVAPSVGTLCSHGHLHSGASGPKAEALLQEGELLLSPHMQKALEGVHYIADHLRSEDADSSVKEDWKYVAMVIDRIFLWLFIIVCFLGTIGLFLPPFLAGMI
nAChR α2β4, sequence (P30926 22-498): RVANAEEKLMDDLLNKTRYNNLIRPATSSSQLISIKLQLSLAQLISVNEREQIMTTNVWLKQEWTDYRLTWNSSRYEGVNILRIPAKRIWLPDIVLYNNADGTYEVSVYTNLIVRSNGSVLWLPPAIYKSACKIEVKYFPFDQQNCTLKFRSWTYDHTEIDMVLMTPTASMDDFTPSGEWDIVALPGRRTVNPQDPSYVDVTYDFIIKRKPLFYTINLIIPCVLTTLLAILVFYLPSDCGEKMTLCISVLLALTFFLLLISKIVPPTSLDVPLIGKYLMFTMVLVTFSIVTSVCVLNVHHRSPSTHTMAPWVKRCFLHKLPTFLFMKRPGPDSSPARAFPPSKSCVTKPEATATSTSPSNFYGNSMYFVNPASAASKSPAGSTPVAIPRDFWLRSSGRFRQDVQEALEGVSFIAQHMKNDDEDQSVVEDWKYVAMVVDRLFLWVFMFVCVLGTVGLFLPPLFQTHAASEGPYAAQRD
In data set [4] the target is nAChR α4β4 (Homo sapiens, UniProt P30926+P43681). The data set is classed as binding.
nAChR α4β4, sequence (P43681 29-627): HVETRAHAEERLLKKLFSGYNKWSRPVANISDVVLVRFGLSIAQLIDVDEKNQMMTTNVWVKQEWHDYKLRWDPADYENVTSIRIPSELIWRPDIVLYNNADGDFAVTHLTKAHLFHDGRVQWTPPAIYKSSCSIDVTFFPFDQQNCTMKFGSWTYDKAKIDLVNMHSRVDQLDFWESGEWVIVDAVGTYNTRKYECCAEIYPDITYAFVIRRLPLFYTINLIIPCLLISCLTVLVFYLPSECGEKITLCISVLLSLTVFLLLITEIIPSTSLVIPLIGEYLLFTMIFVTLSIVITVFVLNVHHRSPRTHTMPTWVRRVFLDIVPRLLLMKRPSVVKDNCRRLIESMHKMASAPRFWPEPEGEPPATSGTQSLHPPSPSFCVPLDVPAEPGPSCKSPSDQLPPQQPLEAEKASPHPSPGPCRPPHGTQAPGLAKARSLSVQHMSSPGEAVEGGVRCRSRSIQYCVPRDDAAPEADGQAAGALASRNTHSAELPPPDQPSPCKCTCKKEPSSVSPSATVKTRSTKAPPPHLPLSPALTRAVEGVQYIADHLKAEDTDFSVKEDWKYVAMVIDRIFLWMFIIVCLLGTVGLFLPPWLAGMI
nAChR α4β4, sequence (P30926 22-498): as the sequence (P30926 22-498) above
Data set [5] has as its target hα4β2 nAChR (Homo sapiens, UniProt P17787+P43681). Format: binding. Conditions: read-out: Ki α4β2; human cloned receptors, 3H-epibatidine.
The target in data set [6] is α7 nAChR (Rattus norvegicus, UniProt Q05941). Format: binding. Conditions: read-out: Ki α7; rat cloned receptors labeled with 125I-α-bungarotoxin.
α7 nAChR, sequence (Q05941 23-502): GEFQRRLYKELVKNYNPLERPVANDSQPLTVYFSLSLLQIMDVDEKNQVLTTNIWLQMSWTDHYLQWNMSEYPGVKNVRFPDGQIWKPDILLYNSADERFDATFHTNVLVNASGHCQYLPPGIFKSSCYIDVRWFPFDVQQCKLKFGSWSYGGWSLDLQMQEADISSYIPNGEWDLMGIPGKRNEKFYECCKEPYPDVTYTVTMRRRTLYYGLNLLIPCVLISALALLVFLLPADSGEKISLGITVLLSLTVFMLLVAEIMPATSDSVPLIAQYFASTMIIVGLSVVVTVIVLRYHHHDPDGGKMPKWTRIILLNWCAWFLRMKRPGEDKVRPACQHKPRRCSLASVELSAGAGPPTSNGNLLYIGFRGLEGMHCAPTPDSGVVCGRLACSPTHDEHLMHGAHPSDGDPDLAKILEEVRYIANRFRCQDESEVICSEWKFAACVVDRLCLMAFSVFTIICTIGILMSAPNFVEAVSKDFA
For data set [7], the system named is all other receptor subtypes tested. In words: PDSP screen of other receptor subtypes at 10 μM. Conditions: significant inhibition >50%. Format: binding, human.
In data set [8] the test system is human α3β4 nAChR. The experiment in a line: [86Rb+]rubidium efflux functional assay, YXα3β4H1 cells. The data set is classed as cell-based. Conditions: for As Antagonist, α3β4 nAChR, inhibition of nicotine-stimulated 86Rb+ efflux: vs 100 μM nicotine.
For data set [9], the target named is hβ4 nAChR subtypes. The data set is classed as binding, human. As to conditions: read-out: Affinity for hβ4 nAChR subtypes; range over α4β4, α3β4, α2β4.
Data set [10] concerns the target nAChR α3β4 (Homo sapiens, UniProt P30926+P32297). The data set is classed as binding.
In data set [11] the test system is human α4β2 nAChR. The experiment in a line: [86Rb+]rubidium efflux functional assay, YXα4β2H1 cells. Format: cell-based. Conditions: for As Antagonist, α4β2 nAChR, inhibition of nicotine-stimulated 86Rb+ efflux: vs 100 μM nicotine.
Data set [12] addresses hα2β2 nAChR (Homo sapiens, UniProt P17787+Q15822). In words: biochemical. Format: binding.
[13] abbreviates: [α4β2 affinity/other receptor affinity]×100, human α4β2 affinities.
Setting [14] is: 100 μM, 100 μM nicotine as 100%.

hα2β2 nAChR, sequence (Q15822 27-529): as the sequence (Q15822 27-529) above
hα2β2 nAChR, sequence (P17787 26-502): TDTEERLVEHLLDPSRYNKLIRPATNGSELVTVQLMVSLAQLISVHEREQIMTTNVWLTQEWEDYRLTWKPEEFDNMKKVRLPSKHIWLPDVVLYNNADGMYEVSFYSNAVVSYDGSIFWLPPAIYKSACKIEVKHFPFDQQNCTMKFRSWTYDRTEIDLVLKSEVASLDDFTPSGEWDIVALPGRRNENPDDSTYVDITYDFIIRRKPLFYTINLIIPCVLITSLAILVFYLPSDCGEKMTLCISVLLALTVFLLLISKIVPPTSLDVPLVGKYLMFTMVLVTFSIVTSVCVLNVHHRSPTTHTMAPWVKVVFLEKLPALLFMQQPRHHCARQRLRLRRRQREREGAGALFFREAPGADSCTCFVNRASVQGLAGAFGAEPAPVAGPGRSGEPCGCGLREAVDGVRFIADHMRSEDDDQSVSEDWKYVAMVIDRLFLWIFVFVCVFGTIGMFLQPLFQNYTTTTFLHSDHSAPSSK
hα3β2 nAChR, sequence (P17787 26-502): as above
hα3β2 nAChR, sequence (P32297 32-505): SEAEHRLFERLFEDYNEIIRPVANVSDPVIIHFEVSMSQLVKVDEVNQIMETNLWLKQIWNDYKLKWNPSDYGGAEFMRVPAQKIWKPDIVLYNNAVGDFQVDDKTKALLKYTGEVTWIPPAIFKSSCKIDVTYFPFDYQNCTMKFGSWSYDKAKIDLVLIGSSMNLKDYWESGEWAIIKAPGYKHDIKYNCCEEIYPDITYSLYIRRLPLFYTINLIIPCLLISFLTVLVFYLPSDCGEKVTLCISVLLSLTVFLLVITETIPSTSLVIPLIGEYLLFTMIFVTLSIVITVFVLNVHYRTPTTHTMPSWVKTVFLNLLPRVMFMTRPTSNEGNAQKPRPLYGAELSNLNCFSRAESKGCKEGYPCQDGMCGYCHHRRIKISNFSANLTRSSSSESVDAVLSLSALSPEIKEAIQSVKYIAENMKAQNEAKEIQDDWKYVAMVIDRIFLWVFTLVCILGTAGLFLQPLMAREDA
nAChR α3β4, sequence (P32297 32-505): as above
nAChR α3β4, sequence (P30926 22-498): as the sequence (P30926 22-498) above
hα4β2 nAChR, sequence (P17787 26-502): as the sequence (P17787 26-502) above
hα4β2 nAChR, sequence (P43681 27-627): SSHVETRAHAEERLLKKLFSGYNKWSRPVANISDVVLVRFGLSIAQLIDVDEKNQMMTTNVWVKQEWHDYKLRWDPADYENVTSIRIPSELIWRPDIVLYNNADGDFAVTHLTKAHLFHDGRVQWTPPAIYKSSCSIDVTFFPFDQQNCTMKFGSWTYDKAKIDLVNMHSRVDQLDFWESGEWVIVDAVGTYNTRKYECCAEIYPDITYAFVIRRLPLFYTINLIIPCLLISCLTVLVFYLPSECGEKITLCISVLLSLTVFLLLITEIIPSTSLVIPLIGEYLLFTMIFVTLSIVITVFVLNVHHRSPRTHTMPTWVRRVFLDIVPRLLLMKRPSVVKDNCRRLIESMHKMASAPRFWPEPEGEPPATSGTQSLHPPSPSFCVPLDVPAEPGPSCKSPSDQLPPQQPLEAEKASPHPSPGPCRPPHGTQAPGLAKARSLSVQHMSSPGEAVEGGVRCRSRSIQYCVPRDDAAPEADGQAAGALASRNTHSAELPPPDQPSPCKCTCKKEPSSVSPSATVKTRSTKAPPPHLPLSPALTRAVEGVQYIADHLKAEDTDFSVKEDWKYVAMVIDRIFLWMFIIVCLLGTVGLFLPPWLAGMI

Consider `Fc1ncccc1OC[C@@H]1C=CCN1` [Nifene], for which the “Tolerability of intravenous injections” value in data set [1] (Sprague-Dawley male and female rats, 1.6, 20 and 40 μg/kg/day) was “well tolerated”. In addition, the Morbidity or mortality entry in [1] (rats, up to 40 μg/kg/day i.v.) was “no morbidity or mortality”. For the same compound, the “% human α4β2 Selectivity, α3β2” value in data set [2] (setting [13]) was 104%. Moreover, the Ki in data set [2] (read-out: Ki α3β2, human cloned receptors, 3H-epibatidine) was 0.8 nM; in data set [3] (read-out: Ki α2β4, human cloned receptors, 3H-epibatidine), 52.4 nM; in data set [4] (read-out: Ki α4β4, human cloned receptors, 3H-epibatidine), 27.2 nM; in [5], 0.83 nM; in data set [6], 169 nM; in [9] it was 27 to 219 nM. Moreover, the Ki in data set [10] (read-out: Ki α3β4, human cloned receptors, 3H-epibatidine) turned out to be 190 nM; in [12] (read-out: Ki α2β2, human cloned receptors, 3H-epibatidine), 0.34 nM. Moreover, the “% human α4β2 Selectivity, α2β4” value in [3] (setting [13]) came out at 1.58%. Also, the “% human α4β2 Selectivity, α4β4” value in data set [4] (setting [13]) worked out at 3.05%. For the same compound, the “Affinity at all other receptor subtypes tested” value in [7] was “did not exhibit significant affinity”. Also, the figures for the “As Antagonist, α3β4 nAChR, inhibition of nicotine-stimulated 86Rb+ efflux” value in data set [8] (1 μM), in data set [8] (10 μM) and in data set [8] (100 μM) were 9%, 16% and 59%, respectively. For the same compound, in data set [8] (setting [14]), the “As Agonist, α3β4 nAChR, stimulated 86Rb+ efflux” value is 35%. The “% human α4β2 Selectivity, α3β4” value in [10] (setting [13]) turned out to be 0.44%. The “As Antagonist, α4β2 nAChR, inhibition of nicotine-stimulated 86Rb+ efflux” value in data set [11] (1 μM) is listed as 18%; in [11] (10 μM), 21%; in [11] (100 μM), 56%. For the same compound, the “As Agonist, α4β2 nAChR, stimulated 86Rb+ efflux” value in [11] (setting [14]) amounted to 14%. In addition, the “Fold higher affinity for α2β2 compared to α3β2 and α4β2 subtypes” value in data set [12] is reported as “approximately 5 fold”. The “% human α4β2 Selectivity, α2β2” value in data set [12] (setting [13]) was found to be 244%.

In the case of `CN1CCC[C@H]1c1cccnc1` [Nicotine, reference compound], the Ki is 82.7 nM in [3], 27 to 219 nM in data set [9] and 3.64 nM in data set [12].
